Experimental data as given in patent publication US12077503B2, “Substituted cyclic amides and their use as herbicides” (FMC CORPORATION, priority 2015, dated 2024).

What was measured:
Type in all cases: in vivo
[1] = system: barnyardgrass (Echinochloa crus-galli); assay: Test G Post-Emergence Protocol; conditions: Echinochloa crus-galli, post-emergence, 312 h, read-out: Barnyardgrass damage rating; for pest or weed control at 15.625 g/ha: 15.625 g ai/ha, evaluated after 13 days (100=total damage to plant; 0=no damage to plant); for pest or weed control at 62.5 g/ha: 62.5 g ai/ha; for pest or weed control at 62.5 g/ha / pest or weed control at 250 g/ha: evaluated after 13 days, 100=total damage to plant, 0=no damage to plant; for pest or weed control at 250 g/ha: 250 g ai/ha
Summary of the method: (§1)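 Foliar application was made 8 days after sowing, using an aqueous spray of the active in acetone/water (50:50) with 0.5% Tween 20, at doses of 15.625, 62.5 or 250 g/ha. Injury was assessed 13 days later, where 100 meant the plant was fully damaged.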

[2] = system: velvetleaf (Abutilon theophrasti); assay: Test G Post-Emergence Protocol; conditions: Abutilon theophrasti, post-emergence, 312 h, read-out: Velvetleaf damage rating; for pest or weed control at 15.625 g/ha: 15.625 g ai/ha, evaluated after 13 days (100=total damage to plant; 0=no damage to plant); for pest or weed control at 62.5 g/ha: 62.5 g ai/ha; for pest or weed control at 62.5 g/ha / pest or weed control at 250 g/ha: evaluated after 13 days, 100=total damage to plant, 0=no damage to plant; for pest or weed control at 250 g/ha: 250 g ai/ha
Summary of the method: as §1

[3] = system: giant foxtail (Setaria faberi); assay: Test G Post-Emergence Protocol; conditions: Setaria faberi, post-emergence, 312 h, read-out: Foxtail, Giant damage rating; for pest or weed control at 15.625 g/ha: 15.625 g ai/ha, evaluated after 13 days (100=total damage to plant; 0=no damage to plant); for pest or weed control at 62.5 g/ha: 62.5 g ai/ha; for pest or weed control at 62.5 g/ha / pest or weed control at 250 g/ha: evaluated after 13 days, 100=total damage to plant, 0=no damage to plant; for pest or weed control at 250 g/ha: 250 g ai/ha
Summary of the method: as §1

[4] = system: ivy-leaved morning glory (Ipomoea hederacea); assay: Test G Post-Emergence Protocol; conditions: Ipomoea, post-emergence, 312 h, read-out: Morningglory, Ivy-leaved damage rating; for pest or weed control at 15.625 g/ha: 15.625 g ai/ha, evaluated after 13 days (100=total damage to plant; 0=no damage to plant); for pest or weed control at 62.5 g/ha: 62.5 g ai/ha; for pest or weed control at 62.5 g/ha / pest or weed control at 250 g/ha: evaluated after 13 days, 100=total damage to plant, 0=no damage to plant; for pest or weed control at 250 g/ha: 250 g ai/ha
Summary of the method: as §1

corn (Zea mays) [5] = assay: Test G Post-Emergence Protocol; conditions: Zea mays, post-emergence, 312 h, read-out: Corn damage rating; for plant injury at 15.625 g/ha: 15.625 g ai/ha, evaluated after 13 days (100=total damage to plant; 0=no damage to plant); for plant injury at 62.5 g/ha: 62.5 g ai/ha; for plant injury at 62.5 g/ha / plant injury at 250 g/ha: evaluated after 13 days, 100=total damage to plant, 0=no damage to plant; for plant injury at 250 g/ha: 250 g ai/ha
Summary of the method: as §1

[6] = system: redroot pigweed (Amaranthus retroflexus); assay: Test G Post-Emergence Protocol; conditions: Amaranthus retroflexus, post-emergence, 312 h, read-out: Pigweed, Redroot damage rating; for pest or weed control at 15.625 g/ha: 15.625 g ai/ha, evaluated after 13 days (100=total damage to plant; 0=no damage to plant); for pest or weed control at 62.5 g/ha: 62.5 g ai/ha; for pest or weed control at 62.5 g/ha / pest or weed control at 250 g/ha: evaluated after 13 days, 100=total damage to plant, 0=no damage to plant; for pest or weed control at 250 g/ha: 250 g ai/ha
Summary of the method: as §1

[7] = system: barnyardgrass (Echinochloa crus-galli); assay: Test G Pre-Emergence Protocol; conditions: Echinochloa crus-galli, pre-emergence, 312 h, evaluated after 13 days; for pest or weed control at 15.625 g/ha: 15.625 g ai/ha; for pest or weed control at 15.625 g/ha / pest or weed control at 250 g/ha: read-out: Barnyardgrass damage rating (100=total damage to plant; 0=no damage to plant); for pest or weed control at 62.5 g/ha: 62.5 g ai/ha, 100=total damage to plant, 0=no damage to plant, read-out: Barnyardgrass damage rating; for pest or weed control at 250 g/ha: 250 g ai/ha
Summary of the method: (§2)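 Glasshouse pre-emergence test: soil-sown seeds, sprayed after 1 d at 15.625, 62.5 or 250 g/ha. Conditions 24/16° C day/night, 14 h light, 65% humidity, watering twice daily. Rating 13 d post-spray (100 = total damage).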

[8] = system: velvetleaf (Abutilon theophrasti); assay: Test G Pre-Emergence Protocol; conditions: Abutilon theophrasti, pre-emergence, 312 h, evaluated after 13 days; for pest or weed control at 15.625 g/ha: 15.625 g ai/ha; for pest or weed control at 15.625 g/ha / pest or weed control at 250 g/ha: read-out: Velvetleaf damage rating (100=total damage to plant; 0=no damage to plant); for pest or weed control at 62.5 g/ha: 62.5 g ai/ha, 100=total damage to plant, 0=no damage to plant, read-out: Velvetleaf damage rating; for pest or weed control at 250 g/ha: 250 g ai/ha
Summary of the method: as §2

[9] = system: giant foxtail (Setaria faberi); assay: Test G Pre-Emergence Protocol; conditions: Setaria faberi, pre-emergence, 312 h, evaluated after 13 days; for pest or weed control at 15.625 g/ha: 15.625 g ai/ha; for pest or weed control at 15.625 g/ha / pest or weed control at 250 g/ha: read-out: Foxtail, Giant damage rating (100=total damage to plant; 0=no damage to plant); for pest or weed control at 62.5 g/ha: 62.5 g ai/ha, 100=total damage to plant, 0=no damage to plant, read-out: Foxtail, Giant damage rating; for pest or weed control at 250 g/ha: 250 g ai/ha
Summary of the method: as §2

[10] = system: ivy-leaved morning glory (Ipomoea hederacea); assay: Test G Pre-Emergence Protocol; conditions: Ipomoea, pre-emergence, 312 h, evaluated after 13 days; for pest or weed control at 15.625 g/ha: 15.625 g ai/ha; for pest or weed control at 15.625 g/ha / pest or weed control at 250 g/ha: read-out: Morningglory, Ivy-leaved damage rating (100=total damage to plant; 0=no damage to plant); for pest or weed control at 62.5 g/ha: 62.5 g ai/ha, 100=total damage to plant, 0=no damage to plant, read-out: Morningglory, Ivy-leaved damage rating; for pest or weed control at 250 g/ha: 250 g ai/ha
Summary of the method: as §2

corn (Zea mays) [11] = assay: Test G Pre-Emergence Protocol; conditions: Zea mays, pre-emergence, 312 h, evaluated after 13 days; for plant injury at 15.625 g/ha: 15.625 g ai/ha; for plant injury at 15.625 g/ha / plant injury at 250 g/ha: read-out: Corn damage rating (100=total damage to plant; 0=no damage to plant); for plant injury at 62.5 g/ha: 62.5 g ai/ha, 100=total damage to plant, 0=no damage to plant, read-out: Corn damage rating; for plant injury at 250 g/ha: 250 g ai/ha
Summary of the method: as §2

[12] = system: redroot pigweed (Amaranthus retroflexus); assay: Test G Pre-Emergence Protocol; conditions: Amaranthus retroflexus, pre-emergence, 312 h, evaluated after 13 days; for pest or weed control at 15.625 g/ha: 15.625 g ai/ha; for pest or weed control at 15.625 g/ha / pest or weed control at 250 g/ha: read-out: Pigweed, Redroot damage rating (100=total damage to plant; 0=no damage to plant); for pest or weed control at 62.5 g/ha: 62.5 g ai/ha, 100=total damage to plant, 0=no damage to plant, read-out: Pigweed, Redroot damage rating; for pest or weed control at 250 g/ha: 250 g ai/ha
Summary of the method: as §2

Row | SMILES | pest or weed control at 15.625 g/ha [1] [%] | pest or weed control at 62.5 g/ha [1] [%] | pest or weed control at 250 g/ha [1] [%] | pest or weed control at 15.625 g/ha [2] [%] | pest or weed control at 62.5 g/ha [2] [%] | pest or weed control at 250 g/ha [2] [%] | pest or weed control at 15.625 g/ha [3] [%] | pest or weed control at 62.5 g/ha [3] [%] | pest or weed control at 250 g/ha [3] [%] | pest or weed control at 15.625 g/ha [4] [%] | pest or weed control at 62.5 g/ha [4] [%] | pest or weed control at 250 g/ha [4] [%] | plant injury at 15.625 g/ha (corn (Zea mays) [5]) [%] | plant injury at 62.5 g/ha (corn (Zea mays) [5]) [%] | plant injury at 250 g/ha (corn (Zea mays) [5]) [%] | pest or weed control at 15.625 g/ha [6] [%] | pest or weed control at 62.5 g/ha [6] [%] | pest or weed control at 250 g/ha [6] [%] | pest or weed control at 15.625 g/ha [7] [%] | pest or weed control at 62.5 g/ha [7] [%] | further results
1 | CCOc1cc(C2CN(C)C(=O)C2C(=O)Nc2cccc(F)c2F)ccc1Cl (stereo not drawn) [Compound 1686] | 30 | 70 | 80 | 30 | 20 | 40 | 60 | 70 | 80 | 20 | 20 | 70 | 0 | 10 | 60 | 30 | 20 | 40 | 40 | 70 | pest or weed control at 250 g/ha [7]: 70%; pest or weed control at 15.625 g/ha [8]: 0%; pest or weed control at 62.5 g/ha [8]: 0%; pest or weed control at 250 g/ha [8]: 40%; pest or weed control at 15.625 g/ha [9]: 60%; pest or weed control at 62.5 g/ha [9]: 70%; pest or weed control at 250 g/ha [9]: 90%; pest or weed control at 15.625 g/ha [10]: 0%; pest or weed control at 62.5 g/ha [10]: 20%; pest or weed control at 250 g/ha [10]: 60%; plant injury at 15.625 g/ha (corn (Zea mays) [11]): 10%; plant injury at 62.5 g/ha (corn (Zea mays) [11]): 20%; plant injury at 250 g/ha (corn (Zea mays) [11]): 50%; pest or weed control at 15.625 g/ha [12]: 0%; pest or weed control at 62.5 g/ha [12]: 0%; pest or weed control at 250 g/ha [12]: 60%
2 | CCOc1cc(C)cc(C2CN(C)C(=O)C2C(=O)Nc2cccc(F)c2F)c1 (stereo not drawn) [Compound 1692] | 40 | 70 | 80 | 0 | 20 | 30 | 60 | 80 | 80 | 40 | 30 | 70 | 20 | 50 | 80 | 0 | 40 | 40 | 20 | 70 | pest or weed control at 250 g/ha [7]: 80%; pest or weed control at 15.625 g/ha [8]: 0%; pest or weed control at 62.5 g/ha [8]: 0%; pest or weed control at 250 g/ha [8]: 20%; pest or weed control at 15.625 g/ha [9]: 60%; pest or weed control at 62.5 g/ha [9]: 80%; pest or weed control at 250 g/ha [9]: 90%; pest or weed control at 15.625 g/ha [10]: 0%; pest or weed control at 62.5 g/ha [10]: 0%; pest or weed control at 250 g/ha [10]: 30%; plant injury at 15.625 g/ha (corn (Zea mays) [11]): 0%; plant injury at 62.5 g/ha (corn (Zea mays) [11]): 60%; plant injury at 250 g/ha (corn (Zea mays) [11]): 80%; pest or weed control at 15.625 g/ha [12]: 0%; pest or weed control at 62.5 g/ha [12]: 10%; pest or weed control at 250 g/ha [12]: 10%
3 | CCCOc1cc(OC(F)(F)F)cc(C2CN(C)C(=O)C2C(=O)Nc2cccc(F)c2F)c1 (stereo not drawn) [Compound 1693] | 0 | 30 | 80 | 0 | 30 | 20 | 0 | 60 | 80 | 0 | 50 | 60 | 0 | 10 | 70 | 20 | 50 | 60 | 0 | 70 | pest or weed control at 250 g/ha [7]: 70%; pest or weed control at 15.625 g/ha [8]: 0%; pest or weed control at 62.5 g/ha [8]: 0%; pest or weed control at 250 g/ha [8]: 10%; pest or weed control at 15.625 g/ha [9]: 0%; pest or weed control at 62.5 g/ha [9]: 50%; pest or weed control at 250 g/ha [9]: 70%; pest or weed control at 15.625 g/ha [10]: 0%; pest or weed control at 62.5 g/ha [10]: 20%; pest or weed control at 250 g/ha [10]: 20%; plant injury at 15.625 g/ha (corn (Zea mays) [11]): 0%; plant injury at 62.5 g/ha (corn (Zea mays) [11]): 30%; plant injury at 250 g/ha (corn (Zea mays) [11]): 40%; pest or weed control at 15.625 g/ha [12]: 0%; pest or weed control at 62.5 g/ha [12]: 0%; pest or weed control at 250 g/ha [12]: 10%
